Entries after “also recorded” stand apart in the source; their conditions may differ. Structures can show the parent of a compound that is named as a salt.
Assays:
[1] = test system: SARS-CoV-2 Omicron BA.5; experiment: Viral load reduction assay; format: cell-based; details: Fig. S7
[2] = test system: VeroE6 cells; experiment: Cellular bismuth uptake; format: cell-based, African green monkey; details: 24 hours, ICP-MS
[3] = test system: SARS-CoV-2; details: read-out: EC50 (antiviral activity); previously reported; cited from earlier work

Compound	antiviral activity in virus-infected cells [1]	cellular uptake of Bi(III) [2]	EC50 [3] [µM]
Nc1ccc([O-])c(=O)cc1.Nc1ccc([O-])c(=O)cc1.Nc1ccc([O-])c(=O)cc1.[Bi+3] [Bi(Tro-NH2)3, Bi(5-aminotropolonate)3]	did not show antiviral activity as good as that at the enzyme level; also recorded: did not show potent antiviral activity in virus-infected cells	poor cellular uptake of Bi(III)	–
CNC(=C[N+](=O)[O-])NCCSCc1ccc(CN(C)C)o1 [RBC, ranitidine bismuth citrate]	–	–	2.3
